{"source": "PubChem BioAssay (NCI)", "note": "Where “and” joins values, the source holds several entries; their conditions need not be identical. Identical values can stand only once.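 Results reflect a 48-hour exposure of cells in 96-well plates to compound at five concentrations. Here, GI50 denotes the concentration required for 50% inhibition of growth. TGI is the concentration that stops growth completely.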", "data": [{"test_system": "MDA-MB-468 breast", "test": "growth of human tumour cells (NCI), 48 h", "values": [{"smiles": "CC[C@H](C)[C@H](NC(=O)[C@H]1CCCCN1C)C(=O)N(C)[C@H](C[C@@H](OC(C)=O)c1nc(C(=O)NC23C4C5C2C2C3C4C52C(=O)OC)cs1)C(C)C", "note": "(stereo partly specified)", "GI50": "0.000428 µM and < 0.0025 µM", "TGI": "0.00695 µM and < 0.0025 µM"}, {"smiles": "COc1ccc(Cl)cc1Nc1nc(C(F)(F)F)ccc1C(=O)N/N=C/c1ccccc1Cl", "GI50": "1.85 µM", "TGI": "18.5 µM"}, {"smiles": "CCCCNP1(NCCCC)=NP(NCCCC)(NCCCC)=NP(NCCCC)(NCCCC)=NP(NCCCC)(NCCCC)=N1", "GI50": "0.194 µM", "TGI": "2.91 µM"}, {"smiles": "CN(C)c1ccc2cc3c(cc2c1)Oc1ccccc1N3.[Cl][Zn][Cl]", "GI50": "1.09 µM", "TGI": "3.15 µM"}, {"smiles": "COc1ccc2[nH]cc(C3(c4c[nH]c5ccc(OC)cc45)C(=O)Nc4ccc(Cl)cc43)c2c1", "GI50": "2.5 µM", "TGI": "7.85 µM"}, {"smiles": "O=c1[nH][nH]c(=O)c2c(O)c(-c3ccccc3)ncc12", "GI50": "25.2 µM and 48.2 µM", "TGI": "55.8 µM and 235 µM"}, {"smiles": "COC1/C=C/OC2(C)Oc3c(C)c(O)c4c(O)c(c(/C=N/N(c5ccccc5)c5ccccc5)c(O)c4c3C2=O)NC(=O)C(C)=C/C=C/C(C)C(O)C(C)C(O)C(C)C(OC(C)=O)C1C", "note": "(stereo unspecified)", "GI50": "1.84 µM", "TGI": "7.5 µM"}, {"smiles": "COc1ccc2c(c1)C(=O)/C(=C/c1cccc(OCC(=O)c3ccc([N+](=O)[O-])cc3)c1)CO2", "GI50": "1.58 µM", "TGI": "3.51 µM"}, {"smiles": "O=C(C(=O)c1cccnc1)c1cccnc1", "GI50": "> 100 µM", "TGI": "> 100 µM"}, {"smiles": "O=C(Nc1cccc(-n2ccc3c(NC(=O)c4ccccc4)nccc32)c1)c1ccc(Cl)c(Cl)c1", "GI50": "0.176 µM", "TGI": "0.903 µM"}, {"smiles": "N#Cc1ccc(O)c(C2=NCC(c3ccc(-c4ccccc4)cc3)O2)c1", "note": "(stereo unspecified)", "GI50": "0.256 µM", "TGI": "1.81 µM"}, {"smiles": "CCCCCCCCCCCCSC1=CC(=O)C=CC1=O", "GI50": "7.09 µM", "TGI": "> 34.6 µM"}, {"smiles": "CN(C)CCN(C)c1ccc2ncc(C#Cc3cncc(C(=O)Nc4ccc(CN5CCN(C)CC5)c(C(F)(F)F)c4)c3)n2n1", "GI50": "3.08 µM", "TGI": "9.91 µM"}, {"smiles": "CN(CCCCCCCCNc1ccnc2ccccc12)Cc1ccc(-c2ccc(-c3ccc(C#N)cc3)s2)cc1", "GI50": "0.0698 µM", "TGI": "1.29 µM"}, {"smiles": "CC(=O)OCC1OC([S-])C(OC(C)=O)C(OC(C)=O)C1OC(C)=O.[Au+].c1ccc(CN2[CH-]N(Cc3ccccc3)C(c3ccccc3)=C2c2ccccc2)cc1", "GI50": "1.63 µM and 0.306 µM", "TGI": "3.41 µM and 1.17 µM"}, {"smiles": "CC[C@H](C)C(=O)O[C@H]1CCC=C2C=C[C@H](C)[C@H](CC[C@@H]3C[C@@H](O)CC(=O)O3)[C@H]21", "GI50": "3.13 µM", "TGI": "11.6 µM"}, {"smiles": "CN(C)C[C@@H]1CCn2cc(c3ccccc32)C2=C(C(=O)NC2=O)c2cn(c3ccccc23)CCO1", "GI50": "2.17 µM", "TGI": "> 10 µM"}, {"smiles": "O=c1oc2ccc(I)cc2c(=O)n1-c1ccc(I)cc1F", "GI50": "0.521 µM", "TGI": "2.94 µM"}, {"smiles": "Oc1ccccc1/C=N\\Nc1ccccc1", "GI50": "4.93 µM", "TGI": "55.8 µM"}, {"smiles": "CCN(CC)CCOc1ccc(NC(=O)C(C(C)C)N2C(=O)/C(=C/c3ccc(Br)cc3)SC2=S)cc1", "note": "(stereo unspecified)", "GI50": "1.92 µM", "TGI": "3.94 µM"}, {"smiles": "COc1ccc(C2CC(c3ccc4ccccc4c3)=NN2c2nc(O)c(C3=c4cc(Cl)ccc4=NC3=O)s2)cc1", "note": "(stereo unspecified)", "GI50": "0.021 µM and < 0.005 µM"}, {"smiles": "CC1=C[C@H]2O[C@@H]3C[C@H]4OC(=O)/C=C\\C=C\\[C@H]([C@@H](C)O)OCC/C(C)=C/C(=O)OC[C@@]2(CC1)[C@]4(C)[C@]31CO1", "GI50": "0.00356 µM", "TGI": "0.0124 µM"}, {"smiles": "CCN(CC)CCNc1ccc(N=Nc2cnc3ccccc3c2)c2ccccc12", "GI50": "1.34 µM", "TGI": "2.64 µM"}, {"smiles": "COc1cc(C(=O)c2cnc(-c3ccc4cc[nH]c4c3)[nH]2)cc(OC)c1OC", "GI50": "0.0327 µM", "TGI": "2.66 µM"}, {"smiles": "C=C1C(=O)O[C@H]2[C@H]1CC/C(CNC(=O)C(C)c1ccc(CC(C)C)cc1)=C\\CC[C@@]1(C)O[C@@H]21", "note": "(stereo partly specified)", "GI50": "1.43 µM", "TGI": "3.12 µM"}, {"smiles": "C#Cc1cccc(Nc2ncnc3ccc(-c4cnc(N)nc4)cc23)c1", "GI50": "0.376 µM", "TGI": "1.77 µM"}, {"smiles": "Cc1cnc(-c2ccc(-c3ccc(NC(=O)Nc4cccc(C(F)(F)F)c4)cc3F)c3c2C(=O)NC3)[nH]1", "GI50": "12.6 µM", "TGI": "31.1 µM"}, {"smiles": "COc1ccc(C(=O)/C=C/c2c(C(F)(F)F)nc3ccccn23)cc1OC", "GI50": "1.81 µM", "TGI": "5.06 µM"}, {"smiles": "COc1ccc(-c2nsc3c2NC(=O)CC3c2cccc(F)c2)cc1", "note": "(stereo unspecified)", "GI50": "1.94 µM", "TGI": "6.98 µM"}, {"smiles": "N#Cc1ccc(C(=O)c2cnn(-c3ccc(F)cc3)c2N)cc1", "GI50": "> 25 µM", "TGI": "> 25 µM"}, {"smiles": "O=C1/C=C/[C@@H](O)[C@@H]2C[C@@H](O)C[C@H]2/C=C/CCC[C@H](CCc2ccc(NC(=S)Nc3ccc4c(c3)C(=O)OC43c4ccc(O)cc4Oc4cc(O)ccc43)cc2)O1", "GI50": "0.178 µM", "TGI": "0.449 µM"}, {"smiles": "COc1ccccc1-c1ccc2c(N)c(C(=O)c3ccc4c(c3)OCO4)sc2n1", "GI50": "2.43 µM", "TGI": "8.64 µM"}, {"smiles": "Cn1cc(-c2csc(-c3cn(CCCN4CCCCC4)c4ccc(Br)cc34)n2)c2cccnc21", "GI50": "1.86 µM", "TGI": "3.55 µM"}, {"smiles": "CCCn1cc(/C=N\\N=C2\\C(=O)Nc3ccc(C)cc32)c2ccccc21", "GI50": "1.69 µM", "TGI": "5.78 µM"}, {"smiles": "O=C(CCN1CCCC1)Nc1ccc2c(Nc3ccc(Br)cc3)c3ccccc3nc2c1", "GI50": "1.72 µM", "TGI": "3.27 µM"}, {"smiles": "O=C1c2c(c3c4ccccc4n(CCCCCCN4CCOCC4)c3c3[nH]c4ccccc4c23)C(=O)N1O", "GI50": "1.97 µM", "TGI": "4.69 µM"}, {"smiles": "CCc1c2c(nc3ccc(OC(=O)OCc4ccc(B5OC(C)(C)C(C)(C)O5)cc4)cc13)-c1cc3c(c(=O)n1C2)COC(=O)[C@]3(O)CC", "GI50": "< 0.01 µM", "TGI": "0.0545 µM"}, {"smiles": "Cc1ccc2c(c1)C(=O)/C(=C/c1cccc(OCC(=O)c3ccc(Cl)cc3)c1)CS2", "GI50": "2.41 µM", "TGI": "7.07 µM"}, {"smiles": "O=C1NC(c2cccc3ccccc23)Nc2ccccc21", "note": "(stereo unspecified)", "GI50": "0.127 µM", "TGI": "> 100 µM"}, {"smiles": "CN1CCN(C(=O)[C@@]2(C)CC[C@]3(C)CC[C@]4(C)C(=CC[C@@H]5[C@@]6(C)CC[C@H](OC(=O)c7cccnc7)C(C)(C)[C@@H]6CC[C@]54C)[C@@H]3C2)CC1", "GI50": "1.71 µM", "TGI": "3.51 µM"}, {"smiles": "Fc1ccc(-c2c(-c3ccncc3)[nH]c3cccnc23)cc1", "GI50": "3.78 µM", "TGI": "24.7 µM"}]}]}
